Consider 27 molecules from US10144706B2 (BRISTOL-MYERS SQUIBB COMPANY, priority 2016, dated 2018).

T1 sequence (Q9NZQ7 with tags, fused parts or gaps): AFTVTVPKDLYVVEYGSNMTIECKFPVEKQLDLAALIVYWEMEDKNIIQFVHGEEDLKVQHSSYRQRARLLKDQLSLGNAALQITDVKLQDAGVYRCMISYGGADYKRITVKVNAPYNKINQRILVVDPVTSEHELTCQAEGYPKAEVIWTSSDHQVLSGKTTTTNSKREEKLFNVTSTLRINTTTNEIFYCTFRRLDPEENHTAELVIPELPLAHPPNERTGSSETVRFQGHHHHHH

The first experiment addresses T1, PD-1/PD-L1 interaction (PD-1-Ig / PD-L1-His) (Homo sapiens, UniProt Q9NZQ7).
T1 construct: hPDL1(18-239)-TVMV-His; TVMV protease site linker (C); made in house; host or cells: HEK293T
Nature of the experiment: PD-1/PD-L1 Homogenous Time-Resolved Fluorescence (HTRF) binding assay. The conditions noted are these: IC50 range class; PD-L1-His 10 nM, PD-1-Ig 20 nM; read-out: Range or IC50. An excerpt: The ability of the compounds of formula (I) to bind to PD-L1 was investigated using a PD-1/PD-L1 Homogenous Time-Resolved Fluorescence (HTRF) binding assay.
Homogenous Time-Resolved Fluorescence (HTRF) Binding Assay.
The interaction of PD-1 and PD-L1 can be assessed using soluble, purified preparations of the extracellular domains of the two proteins. The PD-1 and PD-L1 protein extracellular domains were expressed as fusion proteins with detection tags, for PD-1, the tag was the Fc portion of Immunoglobulin (PD-1-Ig) and for PD-L1 it was the 6 histidine motif (PD-L1-His). All binding studies were performed in an HTRF assay buffer consisting of dPBS supplemented with 0.1% […] bovine serum albumin and 0.05% (v/v) Tween-20. For the h/PD-L1-His binding assay, inhibitors were pre-incubated with PD-L1-His (10 nM final) for 15 m in 4 μl of assay buffer, followed by addition of PD-1-Ig (20 nM final) in 1 μl of assay buffer and further incubation for 15 m. HTRF detection was achieved using europium crypate-labeled anti-Ig (1 nM final) and allophycocyanin (APC) labeled anti-His (20 nM final). Antibodies were diluted in HTRF detection buffer and 5 μl was dispensed on top of the binding reaction. […] Additional binding assays were established between the human proteins PD-1-Ig/PD-L2-His (20 & 5 nM, respectively) and CD80-His/PD-L1-Ig (100 & 10 nM, respectively). […]
(In general: TR-FRET usually uses a lanthanide donor and a delayed reading to cut background.)
The IC50 is the concentration at which inhibition is half-maximal. As for `Cc1c(OCCCNCCS(C)(=O)=O)cccc1-c1cccc(OCCCN2CC[C@@H](O)C2)c1C` [Example 2010, (R)-1-(3-((2,2′-dimethyl-3′-(3-((2-(methylsulfonyl)ethyl)amino)propoxy)-[1,1′-biphenyl]-3-yl)oxy)propyl)pyrrolidin-3-ol], the concentration for half-maximal inhibition (IC50) is 20.1 to 90 nM.
Turning to `Cc1c(OCCCNC[C@H](O)CO)cccc1-c1cccc(OCCCN2CC[C@@H](O)C2)c1C` [Example 2011, (S)-3-((3-((3′-(3-((R)-3-hydroxypyrrolidin-1-yl)propoxy)-2,2′-dimethyl-[1,1′-biphenyl]-3-yl)oxy)propyl)amino)propane-1,2-diol], the 50% inhibitory concentration (IC50) lay in the range of 20.1 to 90 nM.
Turning to `Cc1c(OCCCN[C@@H](CO)C(=O)O)cccc1-c1cccc(OCCCN2CC[C@@H](O)C2)c1C` [Example 2012, (3-((3′-(3-((R)-3-hydroxypyrrolidin-1-yl)propoxy)-2,2′-dimethyl-[1,1′-biphenyl]-3-yl)oxy)propyl)-L-serine], the IC50 is 90.1 to 1000 nM.
On the same count and under the same terms, the same measure for `Cc1c(OCCCN[C@@](C)(CO)C(=O)O)cccc1-c1cccc(OCCCN2CC[C@@H](O)C2)c1C` [Example 2013, (S)-3-hydroxy-2-((3-((3′-(3-((R)-3-hydroxypyrrolidin-1-yl)propoxy)-2,2′-dimethyl-[1,1′-biphenyl]-3-yl)oxy)propyl)amino)-2-methylpropanoic acid]: 90.1 to 1000 nM; for `Cc1c(OCCCNCCO)cccc1-c1cccc(OCCCN2CC[C@@H](O)C2)c1C` [Example 2014, (R)-1-(3-((3′-(3-((2-hydroxyethyl)amino)propoxy)-2,2′-dimethyl-[1,1′-biphenyl]-3-yl)oxy)propyl)pyrrolidin-3-ol]: 20.1 to 90 nM.
On the same count and under the same terms, the same measure for `Cc1c(OCCCNCC(O)C(=O)O)cccc1-c1cccc(OCCCN2CC[C@@H](O)C2)c1C` (stereo partly drawn) [Example 2016, 2-hydroxy-3-((3-((3′-(3-((R)-3-hydroxypyrrolidin-1-yl)propoxy)-2,2′-dimethyl-[1,1′-biphenyl]-3-yl)oxy)propyl)amino)propanoic acid]: 20.1 to 90 nM; for `Cc1c(OCCCN[C@H]2CC[C@H](O)CC2)cccc1-c1cccc(OCCCN2CC[C@@H](O)C2)c1C` [Example 2017, (R)-1-(3-((3′-(3-(((1r,4r)-4-hydroxycyclohexyl)amino)propoxy)-2,2′-dimethyl-[1,1′-biphenyl]-3-yl)oxy)propyl)pyrrolidin-3-ol]: 20.1 to 90 nM.
`Cc1c(OCCCN2CCCC(C(N)=O)C2)cccc1-c1cccc(OCCCN2CC[C@@H](O)C2)c1C` (stereo partly drawn) [Example 2019, 1-(3-((3′-(3-((R)-3-hydroxypyrrolidin-1-yl)propoxy)-2,2′-dimethyl-[1,1′-biphenyl]-3-yl)oxy)propyl)piperidine-3-carboxamide]: the half-inhibitory concentration (IC50) is 0.04 to 20 nM.
Same read-out and setting: under `Cc1c(OCCCNCCCn2ccnc2)cccc1-c1cccc(OCCCN2CC[C@@H](O)C2)c1C` [Example 2020, (R)-1-(3-((3′-(3-((3-(1H-imidazol-1-yl)propyl)amino)propoxy)-2,2′-dimethyl-[1,1′-biphenyl]-3-yl)oxy)propyl)pyrrolidin-3-ol] stands 0.04 to 20 nM; under `Cc1c(OCCCNCCCN2CCOCC2)cccc1-c1cccc(OCCCN2CC[C@@H](O)C2)c1C` [Example 2021, (R)-1-(3-((2,2′-dimethyl-3′-(3-((3-morpholinopropyl)amino)propoxy)-[1,1′-biphenyl]-3-yl)oxy)propyl)pyrrolidin-3-ol], 20.1 to 90 nM.
Regarding `Cc1c(OCCCNCCc2cccnc2)cccc1-c1cccc(OCCCN2CC[C@@H](O)C2)c1C` [Example 2022, (R)-1-(3-((2,2′-dimethyl-3′-(3-((2-(pyridin-3-yl)ethyl)amino)propoxy)-[1,1′-biphenyl]-3-yl)oxy)propyl)pyrrolidin-3-ol], the concentration for half-maximal inhibition (IC50) lay within 0.04 to 20 nM.
Regarding `Cc1c(OCCCNCc2ccccn2)cccc1-c1cccc(OCCCN2CC[C@@H](O)C2)c1C` [Example 2024, (R)-1-(3-((2,2′-dimethyl-3′-(3-((pyridin-2-ylmethyl)amino)propoxy)-[1,1′-biphenyl]-3-yl)oxy)propyl)pyrrolidin-3-ol], the 50% inhibitory concentration (IC50) lay within 20.1 to 90 nM.
Same read-out and setting: the same measure for `Cc1c(OCCCNCCO)cccc1-c1cccc(OCCCNCCO)c1C` [Example 2027, 2,2′-((((2,2′-dimethyl-[1,1′-biphenyl]-3,3′-diyl)bis(oxy))bis(propane-3,1-diyl))bis(azanediyl))bis(ethan-1-ol)]: 20.1 to 90 nM.
Same read-out and setting: the same measure for `Cc1c(OCCCNCCc2ccncc2)cccc1-c1cccc(OCCCNCCc2ccncc2)c1C` [Example 2028, 3,3′-((2,2′-dimethyl-[1,1′-biphenyl]-3,3′-diyl)bis(oxy))bis(N-(2-(pyridin-4-yl)ethyl)propan-1-amine)]: 0.04 to 20 nM; for `Cc1c(OCCCN(C)CCCO)cccc1-c1cccc(OCCCN(C)CCCO)c1C` [Example 2030, 3,3′-((((2,2′-dimethyl-[1,1′-biphenyl]-3,3′-diyl)bis(oxy))bis(propane-3,1-diyl))bis(methylazanediyl))bis(propan-1-ol)]: 0.04 to 20 nM; for `Cc1c(OCCCN(C)C[C@H](O)CO)cccc1-c1cccc(OCCCN(C)C[C@H](O)CO)c1C` [Example 2031, (2S,2′S)-3,3′-((((2,2′-dimethyl-[1,1′-biphenyl]-3,3′-diyl)bis(oxy))bis(propane-3,1-diyl))bis(methylazanediyl))bis(propane-1,2-diol)]: 0.04 to 20 nM.
On to `Cc1c(OCCCN(C)CCN(C)C)cccc1-c1cccc(OCCCN2CC[C@@H](O)C2)c1C` [Example 2032, (R)-1-(3-((3′-(3-((2-(dimethylamino)ethyl)(methyl)amino)propoxy)-2,2′-dimethyl-[1,1′-biphenyl]-3-yl)oxy)propyl)pyrrolidin-3-ol], for which the half-maximal inhibitory concentration (IC50) was 20.1 to 90 nM.
On the same count and under the same terms, under `Cc1c(OCCCN2CC[C@@H](O)C2)cccc1-c1cccc(OCCCN2CC[C@H](CO)[C@H](O)C2)c1C` [Example 2033, (3S,4R)-4-(hydroxymethyl)-1-(3-((3′-(3-((R)-3-hydroxypyrrolidin-1-yl)propoxy)-2,2′-dimethyl-[1,1′-biphenyl]-3-yl)oxy)propyl)piperidin-3-ol] stands 0.04 to 20 nM.
The same measure, in the same setting: the same measure for `Cc1c(OCCCN(C)CCO)cccc1-c1cccc(OCCCN2CC[C@@H](O)C2)c1C` [Example 2034, (R)-1-(3-((3′-(3-((2-hydroxyethyl)(methyl)amino)propoxy)-2,2′-dimethyl-[1,1′-biphenyl]-3-yl)oxy)propyl)pyrrolidin-3-ol]: 20.1 to 90 nM; for `Cc1c(OCCCNCCc2ccncc2)cccc1-c1cccc(OCCCN2CC[C@@H](O)C2)c1C` [Example 2035, (R)-1-(3-((2,2′-dimethyl-3′-(3-((2-(pyridin-4-yl)ethyl)amino)propoxy)-[1,1′-biphenyl]-3-yl)oxy)propyl)pyrrolidin-3-ol]: 0.04 to 20 nM; for `Cc1c(OCCCN2CCN(C)C(=O)C2)cccc1-c1cccc(OCCCN2CC[C@@H](O)C2)c1C` [Example 2036, (R)-4-(3-((3′-(3-(3-hydroxypyrrolidin-1-yl)propoxy)-2,2′-dimethyl-[1,1′-biphenyl]-3-yl)oxy)propyl)-1-methylpiperazin-2-one]: 90.1 to 1000 nM.
On to `Cc1c(OCCCN[C@@H](Cc2ccncc2)C(=O)O)cccc1-c1cccc(OCCCN2CC[C@@H](O)C2)c1C` [Example 2037, (S)-2-((3-((3′-(3-((R)-3-hydroxypyrrolidin-1-yl)propoxy)-2,2′-dimethyl-[1,1′-biphenyl]-3-yl)oxy)propyl)amino)-3-(pyridin-4-yl)propanoic acid], for which the half-maximal inhibitory concentration (IC50) lay within 90.1 to 1000 nM.
On to `Cc1c(OCCCNCCC(N)=O)cccc1-c1cccc(OCCCN2CC[C@@H](O)C2)c1C` [Example 2038, (R)-3-((3-((3′-(3-(3-hydroxypyrrolidin-1-yl)propoxy)-2,2′-dimethyl-[1,1′-biphenyl]-3-yl)oxy)propyl)amino)propanamide], for which the IC50 was 90.1 to 1000 nM.
Same read-out and setting: the same measure for `Cc1c(OCCCN2CC[C@@H](O)C2)cccc1-c1cccc(OCCCN2C[C@H](O)C[C@H]2C(=O)O)c1C` [Example 2039, (2S,4R)-4-hydroxy-1-(3-((3′-(3-((R)-3-hydroxypyrrolidin-1-yl)propoxy)-2,2′-dimethyl-[1,1′-biphenyl]-3-yl)oxy)propyl)pyrrolidine-2-carboxylic acid]: 1000 to 10000 nM.
Still for that read-out and setting: the same measure for `Cc1c(OCCCNCCc2ccccc2)cccc1-c1cccc(OCCCN2CC[C@@H](O)C2)c1C` [Example 2041, (R)-1-(3-((2,2′-dimethyl-3′-(3-(phenethylamino)propoxy)-[1,1′-biphenyl]-3-yl)oxy)propyl)pyrrolidin-3-ol]: 90.1 to 1000 nM; for `Cc1c(OCCCNCCCO)cccc1-c1cccc(OCCCN2CC[C@@H](O)C2)c1C` [Example 2042, (R)-1-(3-((3′-(3-((3-hydroxypropyl)amino)propoxy)-2,2′-dimethyl-[1,1′-biphenyl]-3-yl)oxy)propyl)pyrrolidin-3-ol]: 20.1 to 90 nM.

The same experiment, now with this note: numeric IC50; PD-L1-His 10 nM, PD-1-Ig 20 nM; read-out: Range or IC50.
As for `CC(=O)N[C@@H]1CCN(CCCOc2cccc(-c3cccc(OCCCN4CC[C@@H](O)C4)c3C)c2C)C1` [Example 2018, N—((R)-1-(3-((3′-(3-((R)-3-hydroxypyrrolidin-1-yl)propoxy)-2,2′-dimethyl-[1,1′-biphenyl]-3-yl)oxy)propyl)pyrrolidin-3-yl)acetamide], the half-maximal inhibitory concentration (IC50) amounted to 69 nM.
